From US20230085307A1, “PYRIDAZINONE COMPOUND AND HERBICIDE” (NISSAN CHEMICAL CORPORATION, priority 2019, published 2023)

What was measured:
rice flat sedge = assay: Test Example 3: herbicidal effect by foliage application, Wagner pot (Table 18, symbol E); type: in vivo, rice flat sedge (Cyperus iria); conditions: 320 g/ha
How it was run: (§1)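 Plants were sown in alluvial soil held under 0.1–0.5 cm standing water and grown 14 days in a greenhouse at 25–30 °C. An emulsifiable formulation, water-diluted to the set dose, was then sprayed onto the foliage, and effects were scored three weeks later using previously defined criteria.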

green foxtail [1] = assay: Test Example 4: herbicidal effect by soil treatment (Table 19, symbol G); type: in vivo, green foxtail (Setaria viridis); conditions: amount of applied herbicide 320 g/ha
How it was run: (§2)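 Herbicidal effect was rated 3 weeks after treatment, using the scoring criteria of an earlier test. The compound, formulated as an emulsion and diluted in water to a set herbicide amount, had been sprayed uniformly on soil over freshly sown seeds. Growth took place in a greenhouse at 25° C. to 30° C.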

velvetleaf [2] = assay: Test Example 5: herbicidal effect by foliage application, plastic box (Table 20, symbol M); type: in vivo, velvetleaf (Abutilon theophrasti); conditions: foliage application, 320 g/ha, three weeks after application
How it was run: (§3)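 Foliar spray test: emulsion formulation diluted in water to a set application rate, sprayed onto 14-day-old plants raised in diluvial soil at 25° C to 30° C under glass. Both herbicidal effect and crop effect rated visually three weeks later.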

redroot pigweed [3] = assay: Test Example 5: herbicidal effect by foliage application, plastic box (Table 20, symbol N); type: in vivo, redroot pigweed (Amaranthus retroflexus); conditions: foliage application, 320 g/ha, three weeks after application
How it was run: as §3

wild oat [4] = assay: Test Example 5: herbicidal effect by foliage application, plastic box (Table 20, symbol I); type: in vivo, wild oat (Avena fatua); conditions: foliage application, 320 g/ha, three weeks after application
How it was run: as §3

false cleavers [5] = assay: Test Example 5: herbicidal effect by foliage application, plastic box (Table 20, symbol Q); type: in vivo, false cleavers (Galium spurium); conditions: foliage application, 320 g/ha, three weeks after application
How it was run: as §3

Italian ryegrass [6] = assay: Test Example 4: herbicidal effect by soil treatment (Table 19, symbol K); type: in vivo, Italian ryegrass (Lolium multiflorum); conditions: amount of applied herbicide 320 g/ha
How it was run: as §2

windgrass [7] = assay: Test Example 5: herbicidal effect by foliage application, plastic box (Table 20, symbol L); type: in vivo, windgrass (Apera spica-venti); conditions: foliage application, 320 g/ha, three weeks after application
How it was run: as §3

green foxtail [8] = assay: Test Example 5: herbicidal effect by foliage application, plastic box (Table 20, symbol G); type: in vivo, green foxtail (Setaria viridis); conditions: foliage application, 320 g/ha, three weeks after application
How it was run: as §3

velvetleaf [9] = assay: Test Example 4: herbicidal effect by soil treatment (Table 19, symbol M); type: in vivo, velvetleaf (Abutilon theophrasti); conditions: amount of applied herbicide 320 g/ha
How it was run: as §2

barnyard grass [10] = assay: Test Example 4: herbicidal effect by soil treatment (Table 19, symbol H); type: in vivo, barnyard grass (Echinochloa crus-galli); conditions: amount of applied herbicide 320 g/ha
How it was run: as §2

chickweed [11] = assay: Test Example 4: herbicidal effect by soil treatment (Table 19, symbol P); type: in vivo, common chickweed (Stellaria media); conditions: amount of applied herbicide 320 g/ha
How it was run: as §2

blackgrass [12] = assay: Test Example 4: herbicidal effect by soil treatment (Table 19, symbol J); type: in vivo, blackgrass (Alopecurus myosuroides); conditions: amount of applied herbicide 320 g/ha
How it was run: as §2

barnyard grass [13] = assay: Test Example 5: herbicidal effect by foliage application, plastic box (Table 20, symbol H); type: in vivo, barnyard grass (Echinochloa crus-galli); conditions: foliage application, 320 g/ha, three weeks after application
How it was run: as §3

Italian ryegrass [14] = assay: Test Example 5: herbicidal effect by foliage application, plastic box (Table 20, symbol K); type: in vivo, Italian ryegrass (Lolium multiflorum); conditions: foliage application, 320 g/ha, three weeks after application
How it was run: as §3

chickweed [15] = assay: Test Example 5: herbicidal effect by foliage application, plastic box (Table 20, symbol P); type: in vivo, common chickweed (Stellaria media); conditions: foliage application, 320 g/ha, three weeks after application
How it was run: as §3

southern crabgrass [16] = assay: Test Example 4: herbicidal effect by soil treatment (Table 19, symbol F); type: in vivo, southern crabgrass (Digitaria ciliaris); conditions: amount of applied herbicide 320 g/ha
How it was run: as §2

Chinese sprangletop = assay: Test Example 3: herbicidal effect by foliage application, Wagner pot (Table 18, symbol D); type: in vivo, chinese sprangletop (Leptochloa chinensis); conditions: 320 g/ha
How it was run: as §1

blackgrass [17] = assay: Test Example 5: herbicidal effect by foliage application, plastic box (Table 20, symbol J); type: in vivo, blackgrass (Alopecurus myosuroides); conditions: foliage application, 320 g/ha, three weeks after application
How it was run: as §3

southern crabgrass [18] = assay: Test Example 5: herbicidal effect by foliage application, plastic box (Table 20, symbol F); type: in vivo, southern crabgrass (Digitaria ciliaris); conditions: foliage application, 320 g/ha, three weeks after application
How it was run: as §3

persian speedwell [19] = assay: Test Example 4: herbicidal effect by soil treatment (Table 19, symbol R); type: in vivo, Persian speedwell (Veronica persica); conditions: amount of applied herbicide 320 g/ha
How it was run: as §2

barnyard grass [20] = assay: Test Example 3: herbicidal effect by foliage application, Wagner pot (Table 18, symbol H); type: in vivo, barnyard grass (Echinochloa crus-galli); conditions: 320 g/ha
How it was run: as §1

lambsquarters [21] = assay: Test Example 5: herbicidal effect by foliage application, plastic box (Table 20, symbol O); type: in vivo, lambsquarters (Chenopodium album); conditions: foliage application, 320 g/ha, three weeks after application
How it was run: as §3

false cleavers [22] = assay: Test Example 4: herbicidal effect by soil treatment (Table 19, symbol Q); type: in vivo, false cleavers (Galium spurium); conditions: amount of applied herbicide 320 g/ha
How it was run: as §2

windgrass [23] = assay: Test Example 4: herbicidal effect by soil treatment (Table 19, symbol L); type: in vivo, windgrass (Apera spica-venti); conditions: amount of applied herbicide 320 g/ha
How it was run: as §2

redroot pigweed [24] = assay: Test Example 4: herbicidal effect by soil treatment (Table 19, symbol N); type: in vivo, redroot pigweed (Amaranthus retroflexus); conditions: amount of applied herbicide 320 g/ha
How it was run: as §2

persian speedwell [25] = assay: Test Example 5: herbicidal effect by foliage application, plastic box (Table 20, symbol R); type: in vivo, Persian speedwell (Veronica persica); conditions: foliage application, 320 g/ha, three weeks after application
How it was run: as §3

wild oat [26] = assay: Test Example 4: herbicidal effect by soil treatment (Table 19, symbol I); type: in vivo, wild oat (Avena fatua); conditions: amount of applied herbicide 320 g/ha
How it was run: as §2

lambsquarters [27] = assay: Test Example 4: herbicidal effect by soil treatment (Table 19, symbol O); type: in vivo, lambsquarters (Chenopodium album); conditions: amount of applied herbicide 320 g/ha
How it was run: as §2

CCc1ccccc1-c1sc2ccccc2c1-c1c(O)c(C)nn(C)c1=O [1-003]
herbicidal effect on E (rice flat sedge), rating 0-5 (rice flat sedge): 3 (Herbicidal rate of 40% or more and less than 70%) | herbicidal effect rating, G: green foxtail (green foxtail [1]): 4 (Herbicidal rate of 70% or more and less than 90%) | herbicidal effect grade, M: velvetleaf (velvetleaf [2]): 4 (Herbicidal rate of 70% or more and less than 90%) | herbicidal effect grade, N: redroot pigweed (redroot pigweed [3]): 3 (Herbicidal rate of 40% or more and less than 70%) | herbicidal effect grade, I: wild oat (wild oat [4]): 3 (Herbicidal rate of 40% or more and less than 70%) | herbicidal effect grade, Q: false cleavers (false cleavers [5]): 5 (Herbicidal rate of 90% or more (almost completely withered)) | herbicidal effect rating, K: Italian ryegrass (Italian ryegrass [6]): 0 (Herbicidal rate of 5% or less (almost no effect)) | herbicidal effect grade, L: windgrass (windgrass [7]): 5 (Herbicidal rate of 90% or more (almost completely withered)) | herbicidal effect grade, G: green foxtail (green foxtail [8]): 5 (Herbicidal rate of 90% or more (almost completely withered)) | herbicidal effect rating, M: velvetleaf (velvetleaf [9]): 0 (Herbicidal rate of 5% or less (almost no effect)) | herbicidal effect rating, H: barnyard grass (barnyard grass [10]): 0 (Herbicidal rate of 5% or less (almost no effect)) | herbicidal effect rating, P: chickweed (chickweed [11]): 4 (Herbicidal rate of 70% or more and less than 90%) | herbicidal effect rating, J: blackgrass (blackgrass [12]): 0 (Herbicidal rate of 5% or less (almost no effect)) | herbicidal effect grade, H: barnyard grass (barnyard grass [13]): 3 (Herbicidal rate of 40% or more and less than 70%) | herbicidal effect grade, K: Italian ryegrass (Italian ryegrass [14]): 3 (Herbicidal rate of 40% or more and less than 70%) | herbicidal effect grade, P: chickweed (chickweed [15]): 5 (Herbicidal rate of 90% or more (almost completely withered)) | herbicidal effect rating, F: southern crabgrass (southern crabgrass [16]): 3 (Herbicidal rate of 40% or more and less than 70%) | herbicidal effect on D (Chinese sprangletop), rating 0-5 (Chinese sprangletop): 3 (Herbicidal rate of 40% or more and less than 70%) | herbicidal effect grade, J: blackgrass (blackgrass [17]): 3 (Herbicidal rate of 40% or more and less than 70%) | herbicidal effect grade, F: southern crabgrass (southern crabgrass [18]): 4 (Herbicidal rate of 70% or more and less than 90%) | herbicidal effect rating, R: persian speedwell (persian speedwell [19]): 2 (Herbicidal rate of 20% or more and less than 40%) | herbicidal effect on H (barnyard grass), rating 0-5 (barnyard grass [20]): 1 (Herbicidal rate of 5% or more and less than 20%) | herbicidal effect grade, O: lambsquarters (lambsquarters [21]): 0 (Herbicidal rate of 5% or less (almost no effect)) | herbicidal effect rating, Q: false cleavers (false cleavers [22]): 3 (Herbicidal rate of 40% or more and less than 70%) | herbicidal effect rating, L: windgrass (windgrass [23]): 0 (Herbicidal rate of 5% or less (almost no effect)) | herbicidal effect rating, N: redroot pigweed (redroot pigweed [24]): 2 (Herbicidal rate of 20% or more and less than 40%) | herbicidal effect grade, R: persian speedwell (persian speedwell [25]): 5 (Herbicidal rate of 90% or more (almost completely withered)) | herbicidal effect rating, I: wild oat (wild oat [26]): 0 (Herbicidal rate of 5% or less (almost no effect)) | herbicidal effect rating, O: lambsquarters (lambsquarters [27]): 3 (Herbicidal rate of 40% or more and less than 70%)

COc1ccc2c(-c3c(O)c(C)nn(C)c3=O)c(-c3ccc(F)cc3)sc2c1 [3-063]
herbicidal effect on rice flat sedge (E) (rice flat sedge): 5 (Herbicidal rate of 90% or more (almost completely withered)) | G: green foxtail, herbicidal effect grade (green foxtail [1]): 0 (Herbicidal rate of 5% or less (almost no effect)) | M: velvetleaf, herbicidal effect grade (velvetleaf [2]): 5 (Herbicidal rate of 90% or more (almost completely withered)) | N: redroot pigweed, herbicidal effect grade (redroot pigweed [3]): 4 (Herbicidal rate of 70% or more and less than 90%) | I: wild oat, herbicidal effect grade (wild oat [4]): 2 (Herbicidal rate of 20% or more and less than 40%) | Q: false cleavers, herbicidal effect grade (false cleavers [5]): 5 (Herbicidal rate of 90% or more (almost completely withered)) | K: Italian ryegrass, herbicidal effect grade (Italian ryegrass [6]): 0 (Herbicidal rate of 5% or less (almost no effect)) | L: windgrass, herbicidal effect grade (windgrass [7]): 2 (Herbicidal rate of 20% or more and less than 40%) | G: green foxtail, herbicidal effect grade (green foxtail [8]): 0 (Herbicidal rate of 5% or less (almost no effect)) | M: velvetleaf, herbicidal effect grade (velvetleaf [9]): 2 (Herbicidal rate of 20% or more and less than 40%) | H: barnyard grass, herbicidal effect grade (barnyard grass [10]): 0 (Herbicidal rate of 5% or less (almost no effect)) | P: chickweed, herbicidal effect grade (chickweed [11]): 5 (Herbicidal rate of 90% or more (almost completely withered)) | J: blackgrass, herbicidal effect grade (blackgrass [12]): 0 (Herbicidal rate of 5% or less (almost no effect)) | H: barnyard grass, herbicidal effect grade (barnyard grass [13]): 0 (Herbicidal rate of 5% or less (almost no effect)) | K: Italian ryegrass, herbicidal effect grade (Italian ryegrass [14]): 3 (Herbicidal rate of 40% or more and less than 70%) | P: chickweed, herbicidal effect grade (chickweed [15]): 5 (Herbicidal rate of 90% or more (almost completely withered)) | F: southern crabgrass, herbicidal effect grade (southern crabgrass [16]): 0 (Herbicidal rate of 5% or less (almost no effect)) | herbicidal effect on Chinese sprangletop (D) (Chinese sprangletop): 0 (Herbicidal rate of 5% or less (almost no effect)) | J: blackgrass, herbicidal effect grade (blackgrass [17]): 0 (Herbicidal rate of 5% or less (almost no effect)) | F: southern crabgrass, herbicidal effect grade (southern crabgrass [18]): 0 (Herbicidal rate of 5% or less (almost no effect)) | R: persian speedwell, herbicidal effect grade (persian speedwell [19]): 5 (Herbicidal rate of 90% or more (almost completely withered)) | herbicidal effect on barnyard grass (H) (barnyard grass [20]): 0 (Herbicidal rate of 5% or less (almost no effect)) | O: lambsquarters, herbicidal effect grade (lambsquarters [21]): 3 (Herbicidal rate of 40% or more and less than 70%) | Q: false cleavers, herbicidal effect grade (false cleavers [22]): 2 (Herbicidal rate of 20% or more and less than 40%) | L: windgrass, herbicidal effect grade (windgrass [23]): 0 (Herbicidal rate of 5% or less (almost no effect)) | N: redroot pigweed, herbicidal effect grade (redroot pigweed [24]): 3 (Herbicidal rate of 40% or more and less than 70%) | R: persian speedwell, herbicidal effect grade (persian speedwell [25]): 5 (Herbicidal rate of 90% or more (almost completely withered)) | I: wild oat, herbicidal effect grade (wild oat [26]): 1 (Herbicidal rate of 5% or more and less than 20%) | O: lambsquarters, herbicidal effect grade (lambsquarters [27]): 5 (Herbicidal rate of 90% or more (almost completely withered))
